# Reference: patent US4496572A, “Benzo-fused thromboxane synthetase inhibitors” (Pfizer Inc., priority 1981, dated 1985)
# Tests used:
# TxB2 production = assay: TxB2 generation in clotted whole blood after i.v. dosing (method of Patrono et al, RIA); assay type: in vivo, rabbits; conditions: Oryctolagus cuniculus, iv; for inhibition at 0.3 mg/kg: 0.3 mg/kg i.v.; for inhibition at 0.1 mg/kg: 0.1 mg/kg i.v.
# Experimental: The method of Patrono et al is adapted to study the generation of TxB2 is whole blood samples removed from animals prior to and following drug treatment. Briefly, blood samples are taken into glass tubes and allowed to clot at 37° C. Serum is separated by centrifugation and the samples stored at -40° C. until assayed for TxB2, when appropriate dilutions of ethanol deproteinised samples are analysed by RIA. This technique is used in experiments with the test compounds to determine intravenous potency in anaesthetised rabbits:
# Male New Zealand white rabbits (2.6-5.6 kg) are anaesthetised with sodium pentobarbitone (30 mg/kg i.v.) followed by urethane (500 mg/kg i.p.). After cannulation of the trachea, a carotid artery is catheterised for collection of blood samples. The catheter is kept patent by slow infusion (0.2 ml/minute) of sterile saline. Control carotid arterial blood samples are taken 30 and 5 minutes prior to administration of the test compound or vehicle (0.9% w/v NaCl, 0.2 ml/kg) via a marginal ear vein. Three groups of rabbits are used. The first group receive 0.03 mg/kg of the test compound followed, one hour later, by 0.1 mg/kg. Similarly, the second group receive 0.3 mg/kg, followed by 1 mg/kg. The third group receive vehicle, followed one hour later by a further vehicle injection. […] At each time point, a 1 ml blood sample is taken into a glass test tube, without anticoagulant, for TxB2 determination. For the latter, the blood sample is allowed to clot during a two hour incubation at 37° C. (which preliminary experiments had shown to give maximum TxB2 production) and the serum obtained by centrifugation. Serum samples are then processed through the TxB2 RIA after deproteinisation with ethanol and dilution with Isogel Tris buffer.
# [1] = tested on: human blood platelet aggregation; conditions: human blood platelets; cited from earlier work
# [2] = rabbit, intravenous arachidonic acid; cited from earlier work
# aggregation of platelets = conditions: rats in vivo; cited from earlier work
# prostacyclin synthetase = conditions: pre-incubation of the enzyme with the inhibitor; cited from earlier work
Molecule,"inhibition at 0.3 mg/kg (TxB2 production; 2 min, 2 MIN post dose) [%]","inhibition at 0.1 mg/kg (TxB2 production; 0.25 h, 15 MIN post dose) [%]","inhibition at 0.3 mg/kg (TxB2 production; 0.25 h, 15 MIN post dose) [%]","inhibition at 0.1 mg/kg (TxB2 production; 0.5 h, 30 MIN post dose) [%]","inhibition at 0.3 mg/kg (TxB2 production; 0.75 h, 45 MIN post dose) [%]","inhibition at 0.3 mg/kg (TxB2 production; 1.25 h, 75 MIN post dose) [%]",inhibitory activity in vitro against a variety of aggregating agents [1],protection from the lethal effect of arachidonic acid injection [2],prevention of platelet aggregation in extra corporeal loop of the abdominal aorta (aggregation of platelets),"inhibition at 0.3 mg/kg (TxB2 production; 0.5 h, 30 MIN post dose) [%]",inhibition of PGI2 production (prostacyclin synthetase),"inhibition at 0.1 mg/kg (TxB2 production; 2 min, 2 MIN post dose) [%]","inhibition at 0.1 mg/kg (TxB2 production; 0.75 h, 45 MIN post dose) [%]","inhibition at 0.1 mg/kg (TxB2 production; 1.25 h, 75 MIN post dose) [%]"
Cc1c(Cc2cccnc2)sc2cc(C(=O)O)ccc12,90,76,91,46,71,52,–,–,–,–,–,–,–,–
Cc1c(Cn2ccnc2)n(C)c2ccc(C(=O)O)cc12,99,85,95,84,93,81,–,–,–,–,–,–,–,–
Cc1c(Cn2ccnc2)oc2ccc(C(=O)O)cc12,92,47,83,37,65,51,–,–,–,–,–,–,–,–
Cc1c(Cn2ccnc2)sc2cc(C(=O)O)ccc12,100,100,100,100,100,100,–,–,–,–,–,–,–,–
O=C1C(CC[S+]([O-])c2ccccc2)C(=O)N(c2ccccc2)N1c1ccccc1 (centres unmarked) [sulphinpyrazone],–,–,–,–,–,–,show inhibitory activity,protect the rabbit from the lethal effect,prevent the aggregation of platelets,–,–,–,–,–
Cc1c(Cc2cccnc2)ccc2ccc(C(=O)O)cc12,99,95,98,92,95,97,–,–,–,–,–,–,–,–
Cc1c(Sc2cccnc2)sc2ccc(C(=O)O)cc12,98,29,81,22,36,33,–,–,–,–,–,–,–,–
O=C(O)c1ccc2sc(Cn3ccnc3)cc2c1,–,–,96,–,–,–,–,–,–,89,–,–,–,–
15-hydroperoxyarachidonic acid,–,–,–,–,–,–,–,–,–,–,completely inhibited,–,–,–
CC(=O)Oc1ccccc1C(=O)O [aspirin],–,–,–,–,–,–,show inhibitory activity,protect the rabbit from the lethal effect,–,–,–,–,–,–
Cc1c(Cc2cccnc2)sc2ccc(C(=O)O)cc12,98,96,99,85,97,83,–,–,–,–,–,–,–,–
O=C(O)c1ccc2oc(Cn3ccnc3)c(Br)c2c1,87,52,84,33,65,41,–,–,–,–,–,–,–,–
Cc1c(Cn2ccnc2)sc2ccc(C(=O)O)cc12,–,98,94,–,–,–,–,–,–,95,–,100,100,98
O=C(O)c1ccc2sc(Cn3ccnc3)c(Cl)c2c1,99,99,100,96,100,99,–,–,–,–,–,–,–,–
CSc1c(Cn2ccnc2)sc2ccc(C(=O)O)cc12,99,93,98,95,97,95,–,–,–,–,–,–,–,–
O=C(O)c1ccc2oc(Cn3ccnc3)c(Cl)c2c1,98,88,97,82,93,86,–,–,–,–,–,–,–,–
